We go through 5 molecules from US8501911B2, “Methods of reducing inflammation and mucus hypersecretion” (Biomarck Pharmaceuticals, Ltd, priority 1999, dated 2013).

“And” between values parts separate entries of the source, which are not always exact repeats. Equal values may be shown once. Read-outs that look alike come from different tables or passages of the source. Residues, ends and D or L forms follow the SMILES beside them. *: point of attachment. Myristoyl = CCCCCCCCCCCCCC(=O)*

Test [1] has as its system NHBE cells. The experiment in a line: UTP-induced mucin secretion from NHBE cells (ELISA). In kind it is cell-based, human. As to conditions: for activity at 100 µM: Homo sapiens, NHBE. The method, then: In Results-I-1D, NHBE cells were preincubated with the indicated inhibitor for 15 min and then stimulated with 100 μM UTP for 2 h. Secreted mucin in response to the treatment was collected and assayed by ELISA. Data are presented as mean±S.E. (n=6 at each point).
UTP is a well defined pathophysiologically relevant mucin secretagogue. Lethem ct al., Am. J. Respir. Cell Mol. Biol. 9, 315-322 (1993). […] To determine whether PKC and PKG were involved in regulation of mucin secretion in response to a pathophysiological stimulus, effects of PKC/PKG inhibitors on UTP-induced mucin secretion were investigated. NHBE cells were preincubated with various inhibitors for 15 min and then exposed to UTP (100 μM) plus the inhibitor for 2 h. The secreted mucin was measured by ELISA. […] Apparently, mucin secretion in NHBE cells may be regulated by a signaling mechanism involving both PKC and PKG.
Peptide Blocking Studies—NHBE cells were preincubated with either the MANS or the RNS peptide (1-100 μM) for 15 min, and then PMA (100 nM)+8-Br-cGMP (1 μM) or UTP (100 μM) was added, and cells were incubated for an additional 15 min or 2 h. respectively. Mucin secretion was measured by ELISA and experimental results are designated as Results-I-2B-1 and Results-I-2B-2, as follows.
PP2A is an essential component of the mucin secretory pathway. NHBE cells were preincubated with the indicated concentration of fostriecin, okadaic acid (500 nM), or medium alone for 15 min and then stimulated with PMA (100 nM)+8-Br-cGMP (1 μM) for 15 min or with UTP (100 μM) for 2 h. Secreted mucin was measured by ELISA. […] Thus, dephosphorylation of MARCKS by a PKG-activated PP2A appears to be an essential component of the signaling pathway leading to mucin granule exocytosis.
(§1) Measurement of Mucin Secretion by ELISA—Before collection of “base line” and “test” mucin samples, the accumulated mucus at the apical surface of the cells was removed by washing with phosphate-buffered saline, pH 7.2. To collect the base-line secretion, cells were incubated with medium alone, and secreted mucin in the apical medium was collected and reserved. Cells were rested for 24 h and then exposed to medium containing the selected stimulatory and/or inhibitory reagents (or appropriate controls), after which secreted mucin was collected and reserved as the test sample. Incubation times for the base line and the test were the same but varied depending on the test reagent utilized. Both base line and test secretions were analyzed by ELISA using an antibody capture method as known in the art. See, e.g., Harlow et al., Antibodies: A Laboratory Manual, pp. 570-573, Cold Spring Harbor Laboratory, Cold Spring Harbor, N.Y. (1988). The primary antibody for this assay was 17Q2 (Babco, Richmond, Calif.), a monoclonal antibody that reacts specifically with a carbohydrate epitope on human airway mucins. The ratio of test/base-line mucin, which is similar to a “secretory index”, was used to quantify mucin secretion, allowing each culture dish to serve as its own control and thus, minimizing deviation caused by variability among culture wells. Wright et al., Am. J. Physiol. 271, L854-L861 (1996). Levels of mucin secretion were reported as percentage of the medium control.
These experiments were carried out similarly to those described in Example 7. To test for stimulated secretion, the cells were exposed apically and basolaterally to uridine 5′-triphosphate (UTP) at a concentration of 0.1 mM in media. Cells were pre-incubated for 15 minutes with the MANS peptide and test cultures were then co-incubated with the MANS peptide and UTP for 45 minutes.
NHBE cells were pre-incubated with okadaic acid (500 nM) for 15 min at 37° C./5% CO2, then stimulated with PMA (100 nM)+8-Br-cGMP (1 μM) for 15 min, or with UTP (0.1 mM) for 2 hours. Secreted mucin in the apical medium was collected and assayed by ELISA. […]
On the technique in general: In an ELISA, binding on a coated surface is turned into a signal by an enzyme label.

Test [2] relates to NHBE cells. The experiment in a line: PMA+8-Br-cGMP-induced mucin secretion from NHBE cells (ELISA). Format: cell-based, human. The conditions noted are these: inhibitor 500 nM, 15 min preincubation, then PMA 100 nM+8-Br-cGMP 1 μM 15 min. As to the method:
Peptide Blocking Studies—NHBE cells were preincubated with either the MANS or the RNS peptide (1-100 μM) for 15 min, and then PMA (100 nM)+8-Br-cGMP (1 μM) or UTP (100 μM) was added, and cells were incubated for an additional 15 min or 2 h. respectively. Mucin secretion was measured by ELISA and experimental results are designated as Results-I-2B-1 and Results-I-2B-2, as follows. […]
as §1
MARCKS-related Peptides—Both the myristoylated N-terminal sequence (MANS) and the random N-terminal sequence (RNS) peptides were synthesized at Genemed Synthesis, Inc. (San Francisco, Calif.), then purified by high pressure liquid chromatography (>95% pure), and confirmed by mass spectroscopy with each showing one single peak with an appropriate molecular mass. The MANS peptide consisted of sequence identical to the first 24 amino acids of MARCKS, i.e. the myristoylated N-terminal region that mediates MARCKS insertion into membranes, MA-[…] (SEQ ID NO: 1) (where MA=N-terminal myristate chain). The corresponding control peptide (RNS) contained the same amino acid composition as the MANS but arranged in random order, MA-[…] (SEQ ID NO: 26). The presence of the hydrophobic myristate moiety in these synthetic peptides enhances their permeability to the plasma membranes, enabling the peptides to be taken up readily by cells. To determine the effects of these peptides on mucin secretion, cells were preincubated with the peptides for 15 min prior to addition of secretagogues, and mucin secretion was then measured by ELISA.
Antisense Oligonucleotides—MARCKS antisense oligonucleotide and its corresponding control oligonucleotide were synthesized at Biognostik GmbH (Gottingen, Germany). NHBE cells were treated with 5 μM antisense or control oligonucleotide apically for 3 days (in the presence of 2 μg/ml lipofectin for the first 24 h). Cells were then incubated with secretagogues, and mucin secretion was measured by ELISA. Total RNA and protein were isolated from treated cells. MARCKS mRNA was assessed by Northern hybridization according to conventional procedures using human MARCKS cDNA as a probe. MARCKS protein level was determined by Western blot using purified anti-MARCKS IgG1 (clone 2F12) as the primary detection antibody.
The effect on mucus secretion of a myristoylated peptide containing the first 24 amino acids of the human MARCKS protein (MANS; myristoylated N-terminal sequence; SEQ ID NO: ) was tested. Cultured normal human bronchial epithelial cells as described above were used. […]

The next test relates to human neutrophils. The experiment in a line: Human neutrophil chemotactic migration assay. As to conditions: test peptide 50 μM; fMLP 100 nM; 0 = inactive. Format: cell-based. The method, then:
Human neutrophils were isolated from heparinized whole blood collected from healthy adult donors via cephalic venipuncture by a slightly modified method as described by Akasaki et al., 1999 (Akasaki T, Koga H, and Sumimoto H., Phosphoinositide 3-kinase-dependent and -independent activation of the small GTPase Rac2 in human neutrophils, J. Biol. Chem. 274:18055-18059, 1999). The blood was mixed with dextran (final concentration 1.4% dextran) and then allowed to settle for 60 minutes, after which time the leukocyte rich plasma was collected and layered onto 5 mL of Ficoll-Paque PLUS in 15 ml, conical tubes. The plasma was centrifuged at 1800 rpm for 20 minutes at room temperature. The residual erythrocytes were lysed utilizing a hypotonic saline and the remaining neutrophils were re-suspended in Hank's balanced salt solution containing 20 mM HEPES and 8.9 mM sodium bicarbonate without calcium or magnesium (HBSS), yielding neutrophils that were greater than 98% pure and greater than 99% viable.
Neutrophil migration assay was performed according to the method described by Frevert C W, Wong V A, Goodman R B, Goodwin R, and Martin T R., Rapid fluorescence-based measurement of neutrophil migration in vitro, J. Immunol. Methods, 213:41-52, 1998. Human neutrophils were labeled with the fluorescent dye calcein for 30 minutes at room temperature. Cells were then washed and resuspended in a migration buffer containing HBSS with 2% FCS. Cells were treated with buffer alone or with the indicated test peptide (50 μM) for 30 minutes at 37° C. Treated cells (1×10^4 cells) were then placed on the upper side of a ChemoTx® chemotaxis plate (Neuroprobe, Gaithersburg, Md.) membrane (2 μm pore size). Lower wells of the plate were filled with migration buffer alone or with buffer containing fMLP (100 nM), LTB4 (100 nM), or PAF (100 nM). Wells containing 1×10^4 labeled cells were used as standards to calculate migration percentage. Cells were allowed to migrate for 1 hour at 37° C. After incubation, cells on the top of the filter were washed away with PBS. Followed by this, 0.5 mM EDTA was added to the top of the filter for 5 min to detach adherent cells and the membrane was again washed. The plate was then centrifuged at 1000 rpm for 1 min. The filter was removed and the fluorescence was measured in the lower wells (485 nm excitation, 530 nm emission wavelength) using an fMax fluorescence plate reader (Molecular Devices, Sunnyvale, Calif.). Percent migration was determined by dividing the fluorescence of each well by the fluorescence of the standard wells containing 1×10^4 labeled cells. A lesser number of migrated neutrophils in the bottom compartment is indicative of the test peptide being an inhibitor of inflammation.

The test system of the next test is MARCKS. The experiment in a line: MARCKS phosphorylation in NHBE cells (radiolabeled immunoprecipitation assay). In kind it is cell-based, human. The method, then:
NHBE cells were labeled with [^32 P]orthophosphate and then exposed to the reagents: (a) Rp-8-Br-PET-cGMP (100 μM); (b) okadaic acid (500 nM); (c) 8-Br-cGMP (1 μM); and (d) PMA (100 nM). MARCKS phosphorylation in response to the treatments was evaluated by immunoprecipitation assay.
To reveal molecular events by which MARCKS links kinase activation to mucin secretion, phosphorylation of MARCKS in response to PKC/PKG activation was investigated in depth, and results are presented as Results-I-4A. […] Once phosphorylated, MARCKS was translocated from the plasma membrane to the cytoplasm. More specifically, the activation of PKC results in MARCKS phosphorylation in NHBE cells. Cells were labeled with [^32 P]orthophosphate for 2 h and then exposed to the stimulatory and/or inhibitory reagents (see below). MARCKS phosphorylation in response to the treatments was evaluated by immunoprecipitation with the following specifics, designated Results-I-4A:
[^32P]phosphate, cells were preincubated for 2 h in phosphate-free Dulbecco's modified Eagle's medium containing 0.2% bovine serum albumin and then labeled with 0.1 mCi/ml [^32 P]orthophosphate (9000 Ci/mmol, PerkinElmer Life Sciences) for 2 h. For labeling with [^3H]myristic acid or ^3H-amino acids, cells were incubated overnight in medium containing 50 μCi/ml [^3H]myristic acid (49 Ci/mmol, PerkinElmer Life Sciences) or 0.2 mCi/ml [^3H]leucine (159 Ci/mmol, PerkinElmer Life Sciences) plus 0.4 mCi/ml [^3H]proline (100 Ci/mmol, PerkinElmer Life Sciences). Following labeling, cells were exposed to stimulatory reagents for 5 min. When an inhibitor was used, cells were preincubated with the inhibitor for 15 min prior to stimulation. At the end of the treatments, cells were lysed in a buffer containing 50 mM Tris-HCl (pH 7.5), 150 mM NaCl, 1 mM EDTA, 10% glycerol, 1% Nonidet P-40, 1 mM phenylmethylsulfonyl fluoride, 1 mM benzamidine, 10 μg/ml pepstatin A, and 10 μg/ml leupeptin. Trichloroacetic acid precipitation and scintillation counting may determine the radiolabeling efficiency in each culture. Immunoprecipitation of MARCKS protein was carried out according to the method of Spizz and Blackshear using cell lysates containing equal counts/min. Spizz et al., J. Biol. Chem. 271, 553-562 (1996). Precipitated proteins were resolved by 8% SDS-polyacrylamide gel electrophoresis and visualized by autoradiography. Anti-human MARCKS antibody (2F12) and nonimmune control antibody (6F6) were used in this assay.
Phosphorylation of MARCKS by PMA was attenuated by Calphostin C (500 nM). NHBE cells also contained substantial amounts of cGMP-dependent protein kinase type 1α (PKG-1α) activity, which was localized to the cytosolic fraction. […] In addition, the phosphorylation of MARCKS induced by PMA was reversed by incubation with 8-Br-cGMP (10 μM).

Where [3] appears, read: inhibitor 500 nM, 15 min preincubation, then UTP 100 μM 2 h.

Consider `CCCCCCOC(=O)[C@]1(O)C[C@@H]2O[C@@]1(C)n1c3ccccc3c3c4c(c5c6ccccc6n2c5c31)C(=O)NC4` [KT5720], for which the “Mucin secretion as percent of control” value in the test on NHBE cells [1] (setting [3]) was 157% and 160%. Also, the “Mucin secretion as % of control” value with NHBE cells [2] is “did not affect”.
As for `O=C1C(Nc2ccccc2)=CC(=O)c2ncccc21` [LY83583], the “Mucin secretion as percent of control” value in the test with NHBE cells [1] (inhibitor 50 μM, 15 min preincubation, then UTP 100 μM 2 h) is 111% and 112%.
Regarding `CCCCCCCCCCCCCC(=O)NCC(=O)N[C@@H](C)C(=O)N[C@@H](CCC(N)=O)C(=O)N[C@@H](Cc1ccccc1)C(=O)N[C@@H](CO)C(=O)N[C@@H](CCCCN)C(=O)N[C@H](C(=O)N[C@@H](C)C(=O)O)[C@@H](C)O` [SEQ ID NO: 17, N-myristoyl-GAQFSKTA] (Myristoyl-GAQFSKTA-OH; C-terminus assumed), the “Neutrophil Migration (% Inhibition), fMLP” value in the test on human neutrophils is 92.2%.
Consider `O=c1ccn([C@@H]2O[C@H](COP(=O)(O)OP(=O)(O)OP(=O)(O)O)[C@@H](O)[C@H]2O)c(=O)[nH]1` [UTP, uridine 5′-triphosphate], for which the activity at 100 µM with NHBE cells [1] (0.75 h, 0.1 mM UTP 45 min, no peptide (Results-M-2), read-out: Mucin secretion, % of control levels) came to 159%; in the test with NHBE cells [1] (2 h, UTP 100 μM (0.1 mM) 2 h, no inhibitor, read-out: Mucin secretion as percent of control), 159%. For the same molecule, the “Mucin secretion as percent of control” value in the test on NHBE cells [1] (UTP 100 μM (0.1 mM) 2 h, no inhibitor) was 156% and 161% and 152%.
On to Calphostin C, for which the “Mucin secretion as percent of control” value in the test on NHBE cells [1] (setting [3]) was 120%; in the test with NHBE cells [1] (inhibitor 500 nM, 15 min preincubation, then UTP 100 μM 2 h, listed as calphostin C), 121%. Further, the entries for the “MARCKS phosphorylation (band in immunoprecipitation assay)” value with MARCKS (inhibitor 500 nM + 100 nM PMA) and in the test on MARCKS (inhibitor 500 nM alone) were “attenuated” and “dark band”, respectively.
